Like-named read-outs stand apart in the source and are kept apart here.
Experiments:
[1] = system: A549; assay: MTS cell viability assay; assay type: cell-based; conditions: Homo sapiens, A549 non small cell lung, 72 hours, read-out: MTS NCI A549 GI50
Description: Two human cancer cell lines were assayed (see, Table 1). Cells were maintained at 37° C. and 5% CO2 in DMEM media (4.5 g/L glucose) supplemented with 10% heat-inactivated FBS, 10 mM L-glutamine, and 10 mM Hepes pH 7.5. Briefly, cells were seeded in 96-well plates as set forth in Table 1 and incubated for 16-24 hours. Candidate compounds were serially diluted in DMSO, further diluted in cell culture media, and then added to cells (final DMSO concentration of 0.33%). Cells were incubated in the presence of candidate compound for 72 hours. […] The Compound Numbers in Table 2 correspond to the numbers listed parenthetically in the Example titles.

[2] = system: NCI-H460; assay: MTS cell viability assay; assay type: cell-based, human; conditions: Homo sapiens, NCI-H460, 72 h
Description: Cell viability was determined by measuring the activity of dehydrogenase enzymes in metabolically active cells using a tetrazolium compound, MTS. The assay was performed as described in Promega Technical Bulletin No. 169 (CellTiter 96 Aqueous Non-Radioactive Cell Proliferation Assay). Two human cancer cell lines were assayed (see, Table 1). Cells were maintained at 37° C. and 5% CO2 in DMEM media (4.5 g/L glucose) supplemented with 10% heat-inactivated FBS, 10 mM L-glutamine, and 10 mM Hepes pH 7.5. Briefly, cells were seeded in 96-well plates as set forth in Table 1 and incubated for 16-24 hours. Candidate compounds were serially diluted in DMSO, further diluted in cell culture media, and then added to cells (final DMSO concentration of 0.33%). Cells were incubated in the presence of candidate compound for 72 hours. MTS stock solution (MTS 2 gm/L, PMS […] in PBS) was added to the cells (final concentration MTS […] and PMS 7.67 mg/L) and incubated for 4 hours. SDS was added to a final concentration of 1.4% and absorbance at 490 nm was measured within two hours using a plate reader. […] GI50 values were given in Table 2 for the compounds listed. The Compound Numbers in Table 2 correspond to the numbers listed parenthetically in the Example titles. Where multiple measurements were made by different technicians, both values are given.
Cell viability was determined for N-(3-amino-propyl)-3-chloro-N—[(R)-1-(7-chloro-4-oxo-3-phenylamino-3,4-dihydro-quinazolin-2-yl)-but-3-ynyl]-2-fluoro-benzamide (compound I of Table 2). The cell viability assay of Example 105 was used. GI50 was determined using a variety of cell lines. Cells were plated at 100-5000 cells per well. At least 2 replicates were performed. Where multiple measurements were made by different technicians, both values are given.

[3] = molecular target: T1, HsEg5 (Homo sapiens, UniProt P52732); assay: Fluorescence detection of HsEg5 ATPase activity (ADP Quest, automated); assay type: biochemical
T1 sequence (P52732 18-359 limits assumed): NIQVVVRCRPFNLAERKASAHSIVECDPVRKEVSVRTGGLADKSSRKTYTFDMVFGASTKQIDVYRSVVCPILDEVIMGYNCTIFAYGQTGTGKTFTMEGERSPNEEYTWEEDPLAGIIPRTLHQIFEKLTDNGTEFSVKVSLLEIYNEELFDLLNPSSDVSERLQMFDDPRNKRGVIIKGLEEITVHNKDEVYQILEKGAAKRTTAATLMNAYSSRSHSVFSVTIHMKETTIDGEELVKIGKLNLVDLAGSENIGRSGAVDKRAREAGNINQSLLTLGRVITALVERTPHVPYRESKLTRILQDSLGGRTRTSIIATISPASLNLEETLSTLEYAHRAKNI
Description: Purified HsEg5 motor fragment was activated by mixture with preformed MT polymer (Cytoskeleton, Denver, Colo.) at room temperature for 20 minutes. MT activated ATPase activity was measured using ADP Quest (DiscoverX, Fremont, Calif.) in which a coupled-enzyme assay can translate accumulation of ADP into detectable resorufin signal (FIG. 1A). Fluorescence was measured at λEx=535 nm and λEm=590 nm on a Wallac Victor 2 plate reader (Perkin-Elmer Life Sciences, Boston, Mass.). Reagent A and B from ADP Quest kit were aliquoted and frozen in −20° C. before use. A standard curve was determined using the provided ADP reagent in the reaction buffer that consisted of 50 mM Pipes (pH7.0), 5.0 mM MgCl2, 20 μM paclitaxel and […]. The same buffer was used for Km determination with HsEg5 concentration of 10 nM.
For inhibitor screening, 4 μL of compounds were incubated with 10 μL of MT-activated HsEg5 such that the final concentrations for compound range from 100 μM to 5 nM (1 to 3 serial dilutions, final concentration) and final concentration for HsEg5 is 10 nM. The mixture was incubated at room temperature for 10 minutes with mild shaking. The screening assay contained 0.3% DMSO in all reaction wells. We used wells containing only DMSO as negative controls and wells without ATP as background. Addition of 6 μL ATP (final concentration of 20 μM) initiated the ATP hydrolysis reaction. The 20 μL-reaction was allowed to proceed at room temperature for 10 minutes before addition of 10 μL of reagent A and 20 μL of reagent B. After 20-minute development at room temperature, the fluorescence was measured and data analysis was performed using GraphPad Prism version 3.0 (GraphPad Software, San Diego, Calif.)
For the purpose of high-throughput screening, we automated the fluorescence assay using a Sciclone ALH3000 (Caliper Life Sciences, Hopkinton, Mass.) and Multidrop 384 (Thermo Electron Corp, Waltham, Mass.). First, compound dilution plates for screening (at 10 μM or 1 μM) and ICso determination (10 data points from 100 μM to 5 nM) were made in Corning polypropylene V-bottom 96-well plates. In both cases, the 1st and 7th column contained background (No ATP addition) and negative control (DMSO only). For screening compounds at 10 μM or 1 μM, […] of each compound at 50 μM or 5 μM were used in a 20 μL assay reaction. For IC50 determination, the mother compound plate contained 24 μL of tested compound at stock concentration of 30 mM. 6 μL of each test compound in 30 mM was added to each well in the column 2 and followed by 1:3 serial dilutions in DMSO with the Sciclone ALH3000. 234 μL of assay buffer was then added using a Multidrop 384. Then 4 μL of diluted compounds was used in 20 μL-reaction. The final concentration was a 1:300 dilution of the original stock. Second, a reagent source plate was prepared with three rows designated to MT-activated HsEg5, Reagent A and Reagent B respectively. MTs were diluted with assay buffer and polymerized at room temperature for 10 minutes. Just before use, HsEg5 protein was thawed on ice and activated by addition of MT polymers at room temperature for 20 minutes. HsEg5/MT was then added to Row A of the reagent source plate. The final assay concentration was 10 nM HsEg5 and 500 nM MTs. Reagent A and B were stored at −20° C. and thawed at room temperature followed by transferring to rows B & C of the reagent source plate. Third, ATP substrate plate was prepared by transferring 80 μM ATP solution to each well of a V-shape 96-well plate except the wells in the first row where assay buffer was added instead to have no-ATP blanks. The final concentration for ATP in the assay was 20 μM.
The assay was programmed on Sciclone ALH3000 with the following procedures: 1) Addition of 4 μL compounds to the assay plate, followed by addition of 10 μL of MT-activated HsEg5. […]

[4] = read-out: MTS NCI H460 GI50, NCI-H460 non small cell lung, 72 hours

Row | Compound | GI50 [1] [µM] | GI50 ([2]; read-out: MTS NCI H460 GI50) [µM] | IC50 [3] [µM] | GI50 ([1]; A549, 72 h) [µM] | GI50 [2, 4] [µM]
1 | CC(C)C(c1nc2cc(Cl)ccc2c(=O)n1Nc1ccccc1)N(CCCN)C(=O)c1cccc(F)c1F (stereo not shown) [Compound 42, N-(3-Aminopropyl)-N-[1-(3-anilino-7-chloro-4-oxo-3,4-dihydroquinazolin-2-yl)-2-methylpropyl]-2,3-difluorobenzamide] | 4.28 | 2.08 | 0.476 |  | 
2 | NCCCN(C(=O)c1ccc(F)c(F)c1F)C(Cc1ccc(O)cc1)c1nc2cc(Cl)ccc2c(=O)n1Nc1ccccc1 (stereo not shown) [Compound 55, N-(3-Aminopropyl)-N-[1-(3-anilino-7-chloro-4-oxo-3,4-dihydroquinazolin-2-yl)-2-(4-hydroxyphenyl)ethyl]-2,3,4-trifluorobenzamide] |  |  | 4.16 | 33.7 | 16.1
3 | CC(C)CC(c1nc2cc(Cl)ccc2c(=O)n1Nc1ccccc1)N(CCCN)C(=O)c1ccc(F)c(F)c1 (stereo not shown) [Compound 35, N-(3-Aminopropyl)-N-[1-(3-anilino-7-chloro-4-oxo-3,4-dihydroquinazolin-2-yl)-3-methylbutyl]-3,4-difluorobenzamide] | 4.52 | 6.15 | 1.96 |  | 
4 | C#CC[C@H](c1nc2cc(Cl)ccc2c(=O)n1Nc1ccccc1)N(CCCN)Cc1ccc(C)cc1 [Compound 66, 2-{(R)-1-[(3-Amino-propyl)-(4-methyl-benzyl)-amino]-but-3-ynyl}-7-chloro-3-phenylamino-3H-quinazolin-4-one] |  |  |  | 2.35 | 3.2
5 | CC[C@H](c1nc2cc(Cl)ccc2c(=O)n1Nc1ccccc1)N(CCCN)Cc1ccccc1 [Compound 70, 2-{(1R)-1-[(3-aminopropyl)(benzyl)amino]propyl}-3-anilino-7-chloro-3H-quinazolin-4-one] |  |  |  | 6.91 | 4.23
6 | CCCCC(c1nc2cc(Cl)ccc2c(=O)n1Nc1ccccc1)N(CCCN)C(=O)c1ccc(C)cc1 (stereo not shown) [Compound 59, N-(3-Aminopropyl)-N-[1-(3-anilino-7-chloro-4-oxo-3,4-dihydroquinazolin-2-yl)pentyl]-4-methylbenzamide] |  | 4.24 | 52.3 |  | 
7 | CSCCC(c1nc2cc(Cl)ccc2c(=O)n1Nc1ccccc1)N(CCCN)C(=O)c1cccc(Cl)c1F (stereo not shown) [Compound 38, N-(3-Aminopropyl)-N-[1-(3-anilino-7-chloro-4-oxo-3,4-dihydroquinazolin-2-yl)-3-(methylthio)propyl]-3-chloro-2-fluorobenzamide] |  |  | 4.59 |  | 3.59
8 | C#CC[C@H](c1nc2cc(Cl)ccc2c(=O)n1Nc1ccccc1)N(CCCN)S(=O)(=O)c1ccc(C)cc1 [Compound 30, N-(3-amino-propyl)-N—[(R)-1-(7-chloro-4-oxo-3-phenylamino-3,4-dihydro-quinazolin-2-yl)-but-3-ynyl]-4-methyl-benzenesulfonamide] |  |  |  | 7.1 | 12
9 | CC[C@H](c1nc2cc(Cl)ccc2c(=O)n1Nc1ccccc1)N(CCCN)S(=O)(=O)c1c(C)nn(C)c1C [Compound 33, N-(3-Aminopropyl)-N-[(1R)-1-(3-anilino-7-chloro-4-oxo-3,4-dihydroquinazolin-2-yl)propyl]-1,3,5-trimethyl-1H-pyrazole-4-sulfonamide] |  | 10.4 | 4.22 |  | 
10 | Cc1ccc(C(=O)N(CCCN)C(c2nc3cc(Cl)ccc3c(=O)n2Nc2ccccc2)C(C)C)cc1F (stereo not shown) [Compound 46, N-(3-Aminopropyl)-N-[1-(3-anilino-7-chloro-4-oxo-3,4-dihydroquinazolin-2-yl)-2-methylpropyl]-3-fluoro-4-methylbenzamide] |  |  | 0.246 |  | 0.678
11 | CCC(c1nc2cc(Cl)ccc2c(=O)n1Nc1ccccc1)N(CCN)C(=O)c1ccc(Cl)cc1 (stereo not shown) [Compound 60, N-(2-Aminoethyl)-N-[1-(3-anilino-7-chloro-4-oxo-3,4-dihydroquinazolin-2-yl)propyl]-4-chlorobenzamide] |  | 10 | 3.99 |  | 
12 | CC[C@H](c1nc2cc(Cl)ccc2c(=O)n1Nc1ccccc1)N(CCCN)Cc1ccc(C)cc1 [Compound 68, 2-{(R)-1-[(3-Amino-propyl)-(4-methyl-benzyl)-amino]-propyl}-7-chloro-3-phenylamino-3H-quinazolin-4-one] |  |  |  | 3.86 | 2.59
13 | CC[C@H](c1nc2cc(Cl)ccc2c(=O)n1Nc1ccccc1)N(CCCN)S(=O)(=O)c1cccc(F)c1 [Compound 31, N-(3-Aminopropyl)-N-[(1R)-1-(3-anilino-7-chloro-4-oxo-3,4-dihydroquinazolin-2-yl)propyl]-3-fluorobenzenesulfonamide] | 10.8 |  | 1.43 |  | 
14 | CC[C@H](c1nc2cc(Cl)ccc2c(=O)n1Nc1ccccc1)N(CCCN)Cc1ccc(F)c(C)c1 [Compound 69, 2-{(1R)-1-[(3-Aminopropyl)(4-fluoro-3-methylbenzyl)amino]propyl}-3-anilino-7-chloro-3H-quinazolin-4-one] |  |  |  | 3.9 | 3.77
